Results on 2 substances are retold here after patent US11840686B2, “Modulation of prekallikrein (PKK) expression” (Ionis Pharmaceuticals, Inc., priority 2013, dated 2023).

Strand notation (5' to 3'): a small letter for the sugar, then the base; units joined by * are phosphorothioate-linked, units joined directly phosphodiester-linked; [ ] holds rarer units or linkages, { } end groups; capitals alone tell only the bases. e = 2'-O-(2-methoxyethyl) (MOE); [5mC] = 5-methylcytosine; d = 2'-deoxy (DNA)

The subject of data set [1] is vascular leakage. In words: Vascular leakage, plasma Evans Blue OD620, basal model (Example 14). The format is in vivo, mouse. The protocol: Groups 3, 4, 5, 6, 7, and 8 consisted of 8 mice each and were treated with 2.5 mg/kg, 5 mg/kg, 10 mg/kg, 20 mg/kg, 40 mg/kg, or 80 mg/kg (corresponding to 5 mg/kg, 10 mg/kg, 20 mg/kg, 40 mg/kg, 80 mg/kg, or 160 mg/kg per week), respectively of ISIS 482584 administered subcutaneously twice a week for 3 weeks. […] served as the experimental treatment groups for examining the effect of varying doses of ISIS 482584 on basal vascular permeability.
All the groups were then injected with 30 mg/kg of Evans Blue solution in the tail vein. The mice were sacrificed 30 min after the Evans Blue solution administration and colons, feet, and ears were harvested and examined for permeability defects. Blood samples were taken through cardiac puncture.
The blood drawn through cardiac puncture was immediately mixed with 3 times the volume of ice-cold ethanol. The solution was centrifuged at 15,000 g for 20 minutes at 4° C. to remove cell debris and precipitated plasma proteins. The ethanol extracts were further purified by ultra-filtration through a 10 kDa MWCO filter. The color intensity of the ethanol extracted plasma solution was then measured at OD620 nm. The results are presented in Table 70 as percentage increase or decrease of the OD values of the Group 1 PBS control. It was expected that treatment groups may display higher OD values due to reduced vascular leakage.

A short description of data set [2]: Tail bleeding assay (Example 20). The format is in vivo, mouse. The note with it: BALB/c mice; for Bleeding: blood collected over 40 minutes. How it is done:
Tail-bleeding was measured to observe whether treatment with ISIS 482584 causes excess bleeding or hemorrhage in mice.
Groups of 10 male BALB/c mice were treated with 10 mg/kg, 20 mg/kg, or 40 mg/kg of ISIS 482584, administered subcutaneously twice a week for 3 weeks (weekly doses of 20 mg/kg, 40 mg/kg, or 80 mg/kg). A control group of 8 BALB/c mice was treated with PBS, administered subcutaneously twice a week for 3 weeks.
Two days after the final treatment of ISIS oligonucleotides or PBS, mice were placed in a tail bleeding chamber. Mice were anesthetized in the chamber with isoflurane. Then, a small piece of tail (approximately 4 mm from the tip) was cut with sterile scissors. The cut tail was immediately placed in a 15 mL Falcon tube filled with approximately 10 mL of 0.9% NaCl buffer solution warmed to 37° C. The blood was collected over the course of 40 minutes. The saline filled tubes were weighed both before and after bleeding.

Data set [3] concerns vascular permeability induced by ISIS 461756. Put plainly: C1-INH antisense oligonucleotide-induced vascular permeability, Evans Blue OD600 (Example 18). The format is in vivo, mouse. The protocol:
Vascular permeability induced by ISIS 461756, an antisense oligonucleotide which targets murine C1 inhibitor mRNA, increases vascular permeability in mice and replicates the pathology of hereditary angioedema. The effect of ISIS 482584 on this model was evaluated.
One group of 8 mice was treated with 40 mg/kg ISIS 482584 administered subcutaneously twice a week for 3 weeks (weekly dose of 80 mg/kg). A second group of 8 mice was treated with 40 mg/kg of the control oligonucleotide, ISIS 141923, administered subcutaneously twice a week for 3 weeks (weekly dose of 80 mg/kg). A third group of 8 mice was treated with PBS administered subcutaneously twice a week for 3 weeks. On day 14, all the groups were treated with 12.5 mg/kg ISIS 461756 administered subcutaneously twice a week for 3 weeks (weekly dose of 25 mg/kg). A control group of mice was treated with PBS administered subcutaneously twice a week for 3 weeks but was not administered ISIS 461756.
At the end of the treatment period, all the groups were injected with 30 mg/kg of Evans Blue solution into the tail vein. The mice were sacrificed 30 min after the Evans Blue solution administration and colons, feet, ears, and intestines were harvested. The liver was also harvested for RNA analysis.
The harvested tissues from the feet, colon, and intestines were placed in formamide solution overnight to leach out the Evans Blue dye. The formamide solution containing feet tissue was heated to 55° C. and left overnight. The color intensity of the dye-infused formamide solution was then measured at OD600 nm. The data is presented in Table 80 as percent increase or reduction compared to the PBS control not treated with ISIS 461756.

Data set [4] in a line: C-reactive protein and complement C3 levels in cynomolgus monkeys (Example 8). To be noted: cynomolgus monkey plasma, 40 mg/kg sc.
Procedure: (§1) Prior to the study, the monkeys were kept in quarantine for a 30-day period, during which the animals were observed daily for general health. The monkeys were 2-4 years old and weighed between 2 and 4 kg. Ten groups of four randomly assigned male cynomolgus monkeys each were injected subcutaneously with ISIS oligonucleotide or PBS. PBS solution or ISIS oligonucleotides at a dose of 40 mg/kg were administered initially with a loading regimen consisting of four doses on the first week of the study (days 1, 3, 5, and 7), followed by a maintenance regimen consisting of once weekly administration starting on Day 14 (weeks 2 to 13). Subcutaneous injections were performed in clock-wise rotations at 4 sites on the back; one site per dose. The injection sites were delineated by tattoo, while sedated using ketamine, and were separated by a minimum of 3 cm.
To evaluate any inflammatory effect of ISIS oligonucleotides in cynomolgus monkeys, the monkeys were fasted overnight. Approximately, 1.5 mL of blood samples were collected from all the study groups. Blood was collected in tubes without anticoagulant for serum separation. The tubes were kept at room temperature for a minimum of 90 min and then centrifuged at 3,000 rpm for 10 min. C-reactive protein (CRP), which is synthesized in the liver and which serves as a marker of inflammation, was measured using a Toshiba 120FR NEO chemistry analyzer (Toshiba Co., Japan). Complement C3 was also measured similarly, and the data is presented as a percentage of baseline values.
Data set [5] can be described thus: Liver function markers in cynomolgus monkeys (Example 8). To be noted: cynomolgus monkey plasma, 40 mg/kg sc.
Procedure: as §1
To evaluate the effect of ISIS oligonucleotides on hepatic function, the monkeys were fasted overnight. Approximately, 1.5 mL of blood samples were collected from all the study groups. Blood was collected in tubes without anticoagulant for serum separation. The tubes were kept at room temperature for a minimum of 90 min and then centrifuged at 3,000 rpm for 10 min. Levels of various liver function markers were measured using a Toshiba 120FR NEO chemistry analyzer (Toshiba Co., Japan).
Data set [6] concerns human PKK mRNA. In words: Human PKK mRNA in liver of human KLKB1 transgenic mice (Example 7). Format: in vivo. The note with it: transgenic mice. A digest of the protocol:
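Transgenic mice carrying a 37,390 bp human KLKB1 fragment dosed subcutaneously twice weekly for 3 weeks at 2.5, 5.0, 10 or 20 mg/kg/week; PBS controls. Liver harvested 48 h after the last dose. Human PKK mRNA measured by real-time PCR and expressed as % inhibition versus PBS.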

[7] abbreviates: Evans Blue OD600, all groups ISIS 461756 25 mg/kg/wk, pretreatment PBS or oligonucleotide 80 mg/kg/wk.

Take “ISIS 482584: 5-10-5 MOE gapmer targeting murine PKK, GGCATATTGGTTTTTGGAAT; SEQ ID NO: 2244 (antisense eG*eG*e[5mC]*eA*eT*dA*dT*dT*dG*dG*dT*dT*dT*dT*dT*eG*eG*eA*eA*eT)”: the “Percentage of OD620 nm of Evans Blue dye compared to the PBS basal control, Plasma” value in data set [1] (10 mg/kg/week) turned out to be 36%; in data set [1] (20 mg/kg/week) it was 56%; in data set [1] (40 mg/kg/week), 83%; in data set [1] (80 mg/kg/week), 93%; in data set [1] (160 mg/kg/week), 95%. In addition, the Bleeding in data set [2] (20 mg/kg/wk sc 3 weeks) is recorded as 0.03 mL; in data set [2] (40 mg/kg/wk sc 3 weeks) it was 0.14 mL; in data set [2] (80 mg/kg/wk sc 3 weeks), 0.07 mL. Besides, in data set [2] (10-40 mg/kg s.c. twice a week for 3 weeks), the “tail bleeding” value is recorded as “did not significantly affect bleeding”. For the same substance, the “vascular permeability induced by ISIS 461756” value in data set [3] (40 mg/kg s.c. twice a week for 3 weeks) is “prevented vascular permeability induced by ISIS 461756”. Moreover, the “Percent change in vascular permeability compared to the untreated PBS control, Colon” value in data set [3] (setting [7]) is −23%. Moreover, the “Percent change in vascular permeability compared to the untreated PBS control, Feet” value in data set [3] (setting [7]) is on record as 2%. The “Percent change in vascular permeability compared to the untreated PBS control, Intestines” value in data set [3] (setting [7]) is listed as −25%.
As for “Tes Ges mCes Aes Aes Gds Tds mCds Tds mCds Tds Tds Gds Gds mCds Aes Aes Aes mCes Ae [ISIS 546254]”, in data set [4], the “C3 (% of baseline)” value is on record as 61 % of baseline. For the same substance, the CRP in data set [4] is 0.8 mg/dL. For the same substance, the ALT in data set [5] turned out to be 54 IU/L. In data set [5], this substance returned an AST of 68 IU/L. This substance had an Albumin in data set [5] of 3.8 g/dL. Further, the “human PKK mRNA inhibition” value in data set [6] (2.5 mg/kg/week s.c. twice a week for 3 weeks) is 31%; in data set [6] (5.0 mg/kg/week s.c. twice a week for 3 weeks), 55%; in data set [6] (10 mg/kg/week s.c. twice a week for 3 weeks), 84%; in data set [6] (20 mg/kg/week s.c. twice a week for 3 weeks), 83%.
